Results taken from the NIST ThermoML archive (doi:10.1016/j.jct.2008.05.014).

Assay: xn = mol fraction of the nth substance listed
Settings: Liquid, Pulse-echo method

CCCCCCCCCCCC [dodecane] + CCCCCCC
Settings | speed of sound [m/s]
318.18 K, 60790 kPa, x2 = 0.4999 | 1469.5
318.18 K, 75990 kPa, x2 = 0.4999 | 1530.5
318.18 K, 75990 kPa, x2 = 0.97 | 1479.1
318.18 K, 91180 kPa, x2 = 0.4999 | 1587.8
318.18 K, 101320 kPa, x2 = 0.4999 | 1623.8
318.19 K, 15200 kPa, x2 = 0.4999 | 1243.6
318.19 K, 15200 kPa, x2 = 0.97 | 1168.4
318.19 K, 30390 kPa, x2 = 0.97 | 1261.1
318.19 K, 45590 kPa, x2 = 0.8496 | 1359.9
318.19 K, 45590 kPa, x2 = 0.97 | 1341.7
318.19 K, 60790 kPa, x2 = 0.97 | 1413.8
318.19 K, 91180 kPa, x2 = 0.97 | 1538.7
318.19 K, 101320 kPa, x2 = 0.1014 | 1652.2
318.19 K, 101320 kPa, x2 = 0.97 | 1576.7
318.2 K, 15200 kPa, x2 = 0.1014 | 1286.7
318.2 K, 15200 kPa, x2 = 0.8496 | 1191.3
318.2 K, 30390 kPa, x2 = 0.1014 | 1366.6
318.2 K, 30390 kPa, x2 = 0.8496 | 1281.3
318.2 K, 45590 kPa, x2 = 0.1014 | 1437.8
318.2 K, 60790 kPa, x2 = 0.1014 | 1502.5
318.2 K, 60790 kPa, x2 = 0.8496 | 1430.4
318.2 K, 75990 kPa, x2 = 0.8496 | 1494.5
318.2 K, 76190 kPa, x2 = 0.1014 | 1562.6
318.2 K, 91180 kPa, x2 = 0.1014 | 1617.7
318.2 K, 91180 kPa, x2 = 0.8496 | 1553.3
318.2 K, 101320 kPa, x2 = 0.8496 | 1590.8
318.28 K, 101320 kPa, x2 = 0.5003 | 1623.8
318.29 K, 15200 kPa, x2 = 0 | 1296.2
318.29 K, 15200 kPa, x2 = 0.3007 | 1265.2
318.29 K, 15200 kPa, x2 = 0.5003 | 1243.2
318.29 K, 30390 kPa, x2 = 0 | 1375
318.29 K, 30390 kPa, x2 = 0.5003 | 1327.5
318.29 K, 45590 kPa, x2 = 0 | 1445.5
318.29 K, 45590 kPa, x2 = 0.3007 | 1420.2
318.29 K, 45590 kPa, x2 = 0.5003 | 1401.9
318.29 K, 60790 kPa, x2 = 0 | 1509.7
318.29 K, 60790 kPa, x2 = 0.3007 | 1486
318.29 K, 60790 kPa, x2 = 0.5003 | 1469.1
318.29 K, 75990 kPa, x2 = 0.3007 | 1546.1
318.29 K, 75990 kPa, x2 = 0.5003 | 1530.4
318.29 K, 91180 kPa, x2 = 0 | 1624.1
318.29 K, 91180 kPa, x2 = 0.3007 | 1602.7
318.29 K, 91180 kPa, x2 = 0.5003 | 1587.6
318.29 K, 101320 kPa, x2 = 0 | 1658.5
318.29 K, 101320 kPa, x2 = 0.3007 | 1638.2
318.3 K, 30390 kPa, x2 = 0.3007 | 1347.3
318.3 K, 75990 kPa, x2 = 0 | 1568.8
318.3 K, 75990 kPa, x2 = 0.7007 | 1510
318.3 K, 101320 kPa, x2 = 0.7007 | 1605
318.31 K, 15200 kPa, x2 = 0.7007 | 1213.9
318.31 K, 30390 kPa, x2 = 0.7007 | 1301.3
318.31 K, 45590 kPa, x2 = 0.7007 | 1378
318.31 K, 60790 kPa, x2 = 0.7007 | 1447.1
318.31 K, 91180 kPa, x2 = 0.7007 | 1568.1
318.37 K, 101 kPa, x2 = 0.6 | 1123.2
318.38 K, 101 kPa, x2 = 0.7002 | 1105.9
318.38 K, 101 kPa, x2 = 0.8995 | 1066.3
318.39 K, 101 kPa, x2 = 0 | 1200.9
318.39 K, 101 kPa, x2 = 0.3002 | 1167
318.39 K, 101 kPa, x2 = 0.3996 | 1153.6
318.4 K, 101 kPa, x2 = 0.1007 | 1190.5
318.4 K, 101 kPa, x2 = 0.8 | 1087
318.41 K, 101 kPa, x2 = 0.2001 | 1179.3
318.41 K, 101 kPa, x2 = 0.5002 | 1138.9
